How the values were obtained:
[1] = Protolysis constant at an ionic strength of 0.1 M.; assay type: ADME
Rattus norvegicus [2] = organism: Rattus norvegicus; assay: In vitro stimulation of norepinephrine release from hippocampal nerve endings.; assay type: functional; conditions: Hippocampus
Rattus norvegicus [3] = organism: Rattus norvegicus; assay: Inhibition of stimulation of NE release by 100 uM of AMPA; assay type: functional
[4] = molecular target: Glutamate receptor ionotropic, AMPA (Rattus norvegicus, UniProt P19490+P19491+P19492+P19493); assay: Inhibition of specific binding of [3H]AMPA to Ionotropic glutamate receptor AMPA in rat brain membranes; assay type: cell membranes

For NC(Cn1ccc(=O)[nH]c1=O)C(=O)O (racemic), the pKa [1] was 9.3.

For N[C@@H](Cc1cc([N+](=O)[O-])c(O)c([N+](=O)[O-])c1)C(=O)O, the pKa [1] was 3.2.

Work on NC(Cn1cc([N+](=O)[O-])c(=O)[nH]c1=O)C(=O)O (centres undefined) yielded an EC50 (Rattus norvegicus [2]) of 15 µM and a pKa [1] of 6.4.

Molecule NC(Cc1ccccc1O)C(=O)O (centres undefined) has a pKa [1] of 8.67.

NC(Cc1cccc([N+](=O)[O-])c1O)C(=O)O (centres undefined) gave a pKa [1] of 6.6.

In the case of O=C(O)C(O)Cc1cc([N+](=O)[O-])cc([N+](=O)[O-])c1O (centres undefined), the pKa [1] is reported as 4.2.

O=[N+]([O-])c1cc2nc(O)c(O)nc2cc1[N+](=O)[O-] [DNQX] gave an IC50 (Rattus norvegicus [3]) of 41 µM.

In the case of NC(Cc1ccc(O)c([N+](=O)[O-])c1)C(=O)O (centres undefined), the pKa [1] is reported as 6.8.

In the case of Cc1onc(O)c1C[C@H](N)C(=O)O [(S)-AMPA], the EC50 (Rattus norvegicus [2]) is reported as 6.7 µM.

For NC(Cc1c([N+](=O)[O-])ccc(O)c1[N+](=O)[O-])C(=O)O (centres undefined), the pKa [1] was 3.6.

NC(Cc1ccc([N+](=O)[O-])c(O)c1)C(=O)O (centres undefined) showed a pKa [1] of 6.6.

NC(Cc1cc([N+](=O)[O-])ccc1O)C(=O)O (centres undefined) showed a pKa [1] of 6.4.

NC(Cc1cc(O)ccc1[N+](=O)[O-])C(=O)O (centres undefined) gave a pKa [1] of 6.8.

Work on Cc1cc([N+](=O)[O-])ccc1O yielded a pKa [1] of 7.2.

With NC(Cc1cc([N+](=O)[O-])cc([N+](=O)[O-])c1O)C(=O)O (centres undefined) the IC50 (Rattus norvegicus [3]) was 730 µM, the pKa [1] was 6.4 and the IC50 [4] was 25 µM.

NC(Cc1ccc([N+](=O)[O-])c(O)c1[N+](=O)[O-])C(=O)O (centres undefined) gave an EC50 (Rattus norvegicus [2]) of 74 µM, a pKa [1] of 3.2 and an IC50 [4] of 4.9 µM.

Work on C=C(C)[C@H]1CN[C@H](C(=O)O)[C@H]1CC(=O)O [KAINIC ACID] yielded an EC50 (Rattus norvegicus [2]) of 3.7 µM.

With NC(Cc1cc(O)c([N+](=O)[O-])cc1[N+](=O)[O-])C(=O)O (centres undefined) the pKa [1] was 3.8.

In the case of Cc1cccc([N+](=O)[O-])c1O, the pKa [1] is reported as 7.7.

Reference: ChEMBL document CHEMBL1130171, “Structure--activity studies for alpha-amino-3-hydroxy-5-methyl-4-isoxazolepropanoic acid receptors: acidic hydroxyphenylalanines” (J Med Chem, 1997)
